Consider 40 compounds from patent US20100029619A1, “FUSED HETEROCYCLIC COMPOUND” (TAKEDA PHARMACEUTICAL COMPANY LIMTED, priority 2006, published 2010).

Counter-ions that a name gives are not always drawn.

As a reminder, the melting point is the temperature, or range, at which the solid turns liquid.

With `CN(C)c1ccc2nc(NC(=O)c3ccc(C(C)(C)C)cc3)cn2n1.Cl`, the melting point is 259 to 260 °C. As for `CC(C)(C)c1ccc(C(=O)Nc2cn3nc(N)ccc3n2)cc1.Cl`, the figure is 312 to 313 °C; as for `CC(C)c1ncc(-c2ccc3nc(NC(=O)c4ccc(C(C)(C)C)cc4)cn3n2)[nH]1.Cl`, 304 to 305 °C (dec.); as for `Cc1cccc2nc(NC(=O)c3ccc(C(C)(C)C)cc3)cn12.Cl`, 204 to 205 °C. `O=C([O-])c1ccc(C(=O)Nc2cn3cc(-n4ccnc4)ccc3n2)cc1.[K+]` displayed a melting point above 400 °C. The same measure for `CC(C)(C)c1ccc(C(=O)Nc2cn3c4c(ccc3n2)OCC4)cn1` (as salt: hydrochloride) [Example 18, 6-tert-butyl-N-(1,2-dihydrofuro[2,3-e]imidazo[1,2-a]pyridin-7-yl)nicotinamide dihydrochloride]: 199 to 200 °C; for `CC(C)(C)c1ccc(C(=O)Nc2cn3nc(-n4ccnc4)ccc3n2)cc1` (as salt: hydrochloride) [Example 141, 4-tert-butyl-N-[6-(1H-imidazol-1-yl)imidazo[1,2-b]pyridazin-2-yl]benzamide dihydrochloride]: 298 to 300 °C.

In the case of `Cc1ncc(-c2ccc3nc(NC(=O)c4ccc(C(C)(C)C)cc4)cn3n2)[nH]1` (as salt: hydrochloride) [Example 156, 4-tert-butyl-N-[6-(2-methyl-1H-imidazol-5-yl)imidazo[1,2-b]pyridazin-2-yl]benzamide hydrochloride], the melting point was 295 to 297 °C (dec.). For `CC(C)(C)c1ccc(C(=O)Nc2cn3nc(N4CCCC4)ccc3n2)cc1.Cl` (hydrate or solvate), the melting point lay within 257 to 259 °C. In turn, `CC(C)(C)c1ccc(C(=O)Nc2cn3c4c(ccc3n2)OCC4)cc1` [Example 14, 4-tert-butyl-N-(1,2-dihydrofuro[2,3-e]imidazo[1,2-a]pyridin-7-yl)benzamide] came in with a melting point of 266 to 268 °C. Regarding `COC(=O)C(C)(C)c1ccc(C(=O)Nc2cn3c4c(ccc3n2)OCC4)cc1` [Example 15, methyl 2-[4-(1,2-dihydrofuro[2,3-e]imidazo[1,2-a]pyridin-7-ylcarbamoyl)phenyl]-2-methylpropanoate], the melting point lay within 235 to 237 °C. In turn, `CC(C)(C(=O)O)c1ccc(C(=O)Nc2cn3c4c(ccc3n2)OCC4)cc1` [Example 16, 2-[4-(1,2-dihydrofuro[2,3-e]imidazo[1,2-a]pyridin-7-ylcarbamoyl)phenyl]-2-methylpropanoic acid] gave a melting point of 293 to 295 °C. `CC(C)(C)c1ccc(C(=O)Nc2cn3c4c(ccc3n2)OCC4)cn1` [Example 17, 6-tert-butyl-N-(1,2-dihydrofuro[2,3-e]imidazo[1,2-a]pyridin-7-yl)nicotinamide] came in with a melting point of 246 to 248 °C. The compound `COC(=O)C(C)(C)c1ccc(C(=O)Nc2cn3cc(C)ccc3n2)cc1` [Example 19, methyl 2-methyl-2-{4-[(6-methylimidazo[1,2-a]pyridin-2-yl)carbamoyl]phenyl}propanoate] returned a melting point of 228 to 230 °C. In turn, `Cc1ccc2nc(NC(=O)c3ccc(C(C)(C)C(=O)O)cc3)cn2c1` [Example 20] came in with a melting point of 275 to 277 °C.

In turn, `CCOC(=O)CCC(C)(C)c1ccc(C(=O)Nc2cn3cc(C)ccc3n2)cc1` [Example 21, ethyl 4-methyl-4-{4-[(6-methylimidazo[1,2-a]pyridin-2-yl)carbamoyl]phenyl}pentanoate] came in with a melting point of 152 to 154 °C.

Turning to `Cc1ccc2nc(NC(=O)c3ccc(C(C)(C)CCC(=O)O)cc3)cn2c1` [Example 22, 4-methyl-4-{4-[(6-methylimidazo[1,2-a]pyridin-2-yl)carbamoyl]phenyl}pentanoic acid], the melting point was 280 to 282 °C.

For `COC(=O)C(C)(C)c1ccc(C(=O)Nc2cn3cc(I)ccc3n2)cc1` [Example 23, methyl 2-{4-[(6-iodoimidazo[1,2-a]pyridin-2-yl)carbamoyl]phenyl}-2-methylpropanoate], the melting point lay in the range of 234 to 235 °C. On to `COC(=O)C(C)(C)c1ccc(C(=O)Nc2cn3cc(-c4ccsc4)ccc3n2)cc1` [Example 24, methyl 2-methyl-2-(4-{[6-(3-thienyl)imidazo[1,2-a]pyridin-2-yl]carbamoyl}phenyl)propanoate], for which the melting point is 200 to 201 °C. In turn, `CC(C)(C(=O)O)c1ccc(C(=O)Nc2cn3cc(-c4ccsc4)ccc3n2)cc1` [Example 25, 2-methyl-2-(4-{[6-(3-thienyl)imidazo[1,2-a]pyridin-2-yl]carbamoyl}phenyl)propanoic acid] registered a melting point of 304 to 306 °C. `COC(=O)C(C)(C)c1ccc(C(=O)Nc2cn3cc(-c4ccoc4)ccc3n2)cc1` [Example 26, methyl 2-methyl-2-(4-{[6-(3-furyl)imidazo[1,2-a]pyridin-2-yl]carbamoyl}phenyl)propanoate] had a melting point of 202 to 203 °C. In turn, `CC(C)(C(=O)O)c1ccc(C(=O)Nc2cn3cc(-c4ccoc4)ccc3n2)cc1` [Example 27, 2-methyl-2-(4-{[6-(3-furyl)imidazo[1,2-a]pyridin-2-yl]carbamoyl}phenyl)propanoic acid] gave a melting point of 307 to 309 °C. The same measure for `CC(C)(C(=O)O)c1ccc(C(=O)Nc2cn3cc(-c4cn[nH]c4)ccc3n2)cc1` [Example 29, 2-methyl-2-(4-{[6-(1H-pyrazol-4-yl)imidazo[1,2-a]pyridin-2-yl]carbamoyl}phenyl)propanoic acid]: 306 to 307 °C; for `COC(=O)C(C)(C)c1ccc(C(=O)Nc2cn3cc(Cl)ccc3n2)cc1` [Example 30, methyl 2-{4-[(6-chloroimidazo[1,2-a]pyridin-2-yl)carbamoyl]phenyl}-2-methylpropanoate]: 245 to 246 °C; for `CC(C)(C(=O)O)c1ccc(C(=O)Nc2cn3cc(Cl)ccc3n2)cc1` [Example 31, 2-{4-[(6-chloroimidazo[1,2-a]pyridin-2-yl)carbamoyl]phenyl}-2-methylpropanoic acid]: 311 to 313 °C. As for `CC(C)(CCC#N)c1ccc(C(=O)Nc2cn3cc(Cl)ccc3n2)cc1` [Example 32, N-(6-chloroimidazo[1,2-a]pyridin-2-yl)-4-(3-cyano-1,1-dimethylpropyl)benzamide], the figure is 198 to 199 °C; as for `CC(C)(C(=O)NO)c1ccc(C(=O)Nc2cn3cc(Cl)ccc3n2)cc1` [Example 33, N-(6-chloroimidazo[1,2-a]pyridin-2-yl)-4-[2-(hydroxyamino)-1,1-dimethyl-2-oxoethyl]benzamide], 212 to 213 °C; as for `CC(C)(C(=O)NCC#N)c1ccc(C(=O)Nc2cn3cc(Cl)ccc3n2)cc1` [Example 34, N-(6-chloroimidazo[1,2-a]pyridin-2-yl)-4-{2-[(cyanomethyl)amino]-cyano-1,1-dimethyl-2-oxoethyl}benzamide], 268 to 269 °C.

As to `CC(C)(C(=O)NCCC#N)c1ccc(C(=O)Nc2cn3cc(Cl)ccc3n2)cc1` [Example 35, N-(6-chloroimidazo[1,2-a]pyridin-2-yl)-4-{2-[(2-cyanoethyl)amino]-1,1-dimethyl-2-oxoethyl}benzamide], the melting point is 208 to 209 °C. Turning to `CC(C)(CCc1nnn[nH]1)c1ccc(C(=O)Nc2cn3cc(Cl)ccc3n2)cc1` [Example 36, N-(6-chloroimidazo[1,2-a]pyridin-2-yl)-4-[1,1-dimethyl-3-(1H-tetrazol-5-yl)propyl]benzamide], the melting point lay in the range of 250 to 251 °C. As for `CC(C)(C#N)c1ccc(C(=O)Nc2cn3cc(Cl)ccc3n2)cc1` [Example 38, N-(6-chloroimidazo[1,2-a]pyridin-2-yl)-4-(1-cyano-1-methylethyl)benzamide], the figure is 248 to 250 °C; as for `CC(C)(c1ccc(C(=O)Nc2cn3cc(Cl)ccc3n2)cc1)c1nnn[nH]1` [Example 39, N-(6-chloroimidazo[1,2-a]pyridin-2-yl)-4-[1-methyl-1-(1H-tetrazol-5-yl)ethyl]benzamide], 266 to 267 °C; as for `CC(C)(c1ccc(C(=O)Nc2cn3cc(Cl)ccc3n2)cc1)c1noc(=O)[nH]1` [Example 40, N-(6-chloroimidazo[1,2-a]pyridin-2-yl)-4-[1-methyl-1-(5-oxo-4,5-dihydro-1,2,4-oxadiazol-3-yl)ethyl]benzamide], 310 to 312 °C.

For the compound `CC(C)(CCC#N)c1ccc(C(=O)Nc2cn3cc(-n4ccnc4)ccc3n2)cc1` [Example 45, 4-(3-cyano-1,1-dimethylpropyl)-N-[6-(1H-imidazol-1-yl)imidazo[1,2-a]pyridin-2-yl]benzamide], the melting point was in the range of 233 to 234 °C. `CC(C)(CCc1nnn[nH]1)c1ccc(C(=O)Nc2cn3cc(-n4ccnc4)ccc3n2)cc1` [Example 46, 4-[1,1-dimethyl-3-(1H-tetrazol-5-yl)propyl]-N-[6-(1H-imidazol-1-yl)imidazo[1,2-a]pyridin-2-yl]benzamide] gave a melting point of 266 to 267 °C. Turning to `CC(C)(C)c1ccc(C(=O)Nc2cn3c(ccc4ccccc43)n2)cc1` [Example 50, 4-tert-butyl-N-(imidazo[1,2-a]quinolin-3-yl)benzamide], the melting point fell in the range of 204 to 205 °C. Regarding `CC(C)(C)c1ccc(C(=O)Nc2cn3ccccc3n2)cc1` [Example 54, 4-tert-butyl-N-(imidazo[1,2-a]pyridin-2-yl)benzamide], the melting point lay in the range of 230 to 231 °C. `Cc1c(NC(=O)c2ccc(C(C)(C)C)cc2)nc2ccc(Cl)nn12` [Example 55, 4-tert-butyl-N-(6-chloro-3-methylimidazo[1,2-b]pyridazin-2-yl)benzamide] came in with a melting point of 269 to 270 °C. The same measure for `Cc1c(NC(=O)c2ccc(C(C)(C)C)cc2)nc2ccc(-n3ccnc3)nn12` [Example 56, 4-tert-butyl-N-[6-(1H-imidazol-1-yl)-3-methylimidazo[1,2-b]pyridazin-2-yl]benzamide]: 302 to 303 °C; for `CC(C)(C)c1ccc(C(=O)Nc2cn3cc(-c4ccncc4)ccc3n2)cc1` [Example 59, 4-tert-butyl-N-[6-(pyridin-4-yl)imidazo[1,2-a]pyridin-2-yl]benzamide]: 293 to 294 °C.
